Like-named read-outs stand apart in the source and are kept apart here. Marks after values point to notes of the source that are not given here.
Key:
[1] = target: T1, soybean lipoxygenase (LOX-3) (Glycine max, UniProt P09186); experiment: Soybean lipoxygenase (LOX-3) inhibition; assay type: biochemical; details: after 5 min of incubation; sodium linoleate 100 μM, pH 9.0; read-out: IC50 Value on LOX-3
T1 sequence (P09186 1-857): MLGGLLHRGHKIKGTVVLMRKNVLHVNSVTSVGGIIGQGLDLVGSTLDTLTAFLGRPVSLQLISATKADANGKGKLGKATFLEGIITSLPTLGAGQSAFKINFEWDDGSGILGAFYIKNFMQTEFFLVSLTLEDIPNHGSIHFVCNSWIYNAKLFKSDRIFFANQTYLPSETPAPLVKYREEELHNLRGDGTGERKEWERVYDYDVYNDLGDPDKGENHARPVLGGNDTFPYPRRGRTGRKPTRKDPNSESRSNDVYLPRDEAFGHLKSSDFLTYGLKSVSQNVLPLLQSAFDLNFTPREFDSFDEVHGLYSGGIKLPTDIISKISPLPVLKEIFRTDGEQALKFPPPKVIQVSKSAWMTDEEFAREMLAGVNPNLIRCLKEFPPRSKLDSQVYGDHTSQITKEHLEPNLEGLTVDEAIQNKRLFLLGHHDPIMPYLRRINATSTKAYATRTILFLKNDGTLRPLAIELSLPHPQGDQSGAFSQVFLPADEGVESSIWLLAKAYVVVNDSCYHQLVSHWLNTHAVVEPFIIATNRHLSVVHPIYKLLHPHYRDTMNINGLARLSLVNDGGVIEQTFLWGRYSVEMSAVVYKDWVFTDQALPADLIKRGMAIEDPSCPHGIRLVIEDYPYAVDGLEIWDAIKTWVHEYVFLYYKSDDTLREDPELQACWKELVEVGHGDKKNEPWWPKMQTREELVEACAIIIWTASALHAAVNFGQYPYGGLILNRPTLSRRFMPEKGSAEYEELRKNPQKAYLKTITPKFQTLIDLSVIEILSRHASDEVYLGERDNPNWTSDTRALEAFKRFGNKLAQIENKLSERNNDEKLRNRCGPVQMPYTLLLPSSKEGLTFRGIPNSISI
Description: The anti-inflammatory effect of the synthesized compounds was initially evaluated in vitro, via their ability to inhibit soybean lipoxygenase (LOX-3).
Lipoxygenase activity was determined using soybean lipoxygenase (250 U/mL) and sodium linoleate (100 μM) as substrate, in Tris–HCl buffer pH 9.0. The test compounds dissolved in methanol were added and the reaction was monitored for 5 min at 28 °C, recording absorbance at 234 nm.

[2] = tested on: carrageenan-induced mouse paw edema; experiment: Carrageenan-induced mouse paw edema; assay type: in vivo; details: for inhibition in vivo at 300 µmol/kg: Mus musculus, ip, 0.30 mmol/kg i.p., 3.5 h after carrageenan, mean of 6 animals, read-out: % Edema Reduction; for improvement in anti-inflammatory activity: compared to parent flufenamic acid (g) or flufenamol (h)
Description: In vivo anti-inflammatory activity of the synthesized compounds was evaluated as mouse paw edema reduction. Paw edema was induced by subcutaneous injection of a 2% carrageenan suspension in the right paw of mice, the left serving as the control. The activity of the tested compounds (at 0.30 mmol/kg of body weight, i.p.), expressed as % reduction in paw edema 3.5 h after carrageenan injection, is shown in Table 2. […] Moreover, compounds 9 and 10 (antioxidant derivatives of mefenamic acid) caused a 1.5–2-fold improvement in edema reduction compared to that of the parent mefenamic acid (i).
For the in vivo anti-inflammatory activity, Wistar male rats or C57BL/6 mice were injected with 0.025 mL carrageenan (2% w/v solution in saline) i.d. into the right hind paw, with the left paw serving as the control. The test compounds (300 μmol/kg) were given, i.p., after the carrageenan injection, and 3.5 h later, the produced edema was estimated as the paw weight increase. Results are expressed as percentage of the reduction in paw edema and are the means for six animals (per compound).

[3] = tested on: experimentally induced hyperlipidemic mouse model; experiment: Tyloxapol (Triton WR 1339)-induced hyperlipidemia; assay type: in vivo, mice; details: 84 μmol/kg i.p.; 24 h after tyloxapol
Description: Acute hyperlipidemia was achieved, i.p., by the administration of tyloxapol (Triton WR 1339). The antihyperlipidemic effect of the tested compounds was evaluated as the decrease in total cholesterol (TC) and triglyceride (TG) levels in plasma 24 h after tyloxapol administration. The results are shown in Figure 4A,B. Compounds 9 and 10 reduced TC levels in plasma by 73% and 50%, respectively, and TG levels by 76% and 41%, respectively.
An aqueous solution of Triton WR 1339 was given, i.p., to mice (400 mg/kg of body weight) and one hour later the test compounds (84 μmol/kg of body weight), dissolved in saline or saline only were administered, i.p. After 24 h, blood was taken from the aorta/heart and used for the determination of plasma total cholesterol (TC) and triglyceride (TG) levels, using commercially available kits. Levels of plasma lipids were determined in duplicate while the values presented were the mean from eight animals (per compound).

[4] = Radical scavenging of DPPH; details: DPPH 200 μM, after incubation for 30 min
Description: The antioxidant activity of compounds 1–17 was evaluated via their ability to scavenge the free radical DPPH.
Compounds dissolved in absolute methanol at concentrations of 25–400 μM were added to an equal volume of a methanolic solution of DPPH (final concentration 200 μM) at room temperature (22 ± 2 °C). Absorbance (517 nm) was recorded at different time intervals for 1 h and results were expressed as IC50 (μM) for DPPH after incubation for 30 min [3].

[5] = tested on: carrageenan-induced mouse paw edema; details: cited from earlier work

IC50 [1]	melting point	Structure (SMILES)	inhibition in vivo at 300 µmol/kg [2]	also measured
152 µM	87.2 to 88 °C	CC(C)(C)c1cc(COC(=O)c2ccccc2Nc2cccc(C(F)(F)F)c2)cc(C(C)(C)C)c1O [Compound 7, 3,5-di-tert-butyl-4-hydroxybenzyl 2-((3-(trifluoromethyl)phenyl)amino)benzoate]	38%	improvement in anti-inflammatory activity [2]: 2–2.5 fold
15 µM	136.3 to 136.9 °C	Cc1cccc(Nc2ccccc2COC(=O)c2cc(C(C)(C)C)c(O)c(C(C)(C)C)c2)c1C [Compound 10, 2-((2,3-dimethylphenyl)amino)benzyl 3,5-di-tert-butyl-4-hydroxybenzoate]	54%	reduction of total cholesterol (TC) levels in plasma [3]: 50%; reduction of triglyceride (TG) levels in plasma [3]: 41%; improvement in edema reduction ([2]; compared to parent mefenamic acid (i)): 1.5–2 fold
54 µM	150.4 to 151.3 °C	Cc1c(Cl)cccc1Nc1ccccc1COC(=O)C1(C)CCc2c(C)c(O)c(C)c(C)c2O1 (stereo not drawn) [Compound 16, 2-((3-chloro-2-methylphenyl)amino)benzyl 6-hydroxy-2,5,7,8-tetramethylchromane-2-carboxylate]	54%	IC50 [4]: 47 µM; reduction of total cholesterol (TC) levels in plasma [3]: 55%; reduction of triglyceride (TG) levels in plasma [3]: 78%
29 µM	–	COc1ccc2cc(C(C)CO)ccc2c1 (stereo not drawn) [d, 2-(6-methoxynaphthalen-2-yl)propan-1-ol, reference compound]	40%	–
> 150 µM	–	COc1ccc2c(c1)c(CCOC(=O)C1(C)CCc3c(C)c(O)c(C)c(C)c3O1)c(C)n2C(=O)c1ccc(Cl)cc1 (stereo not drawn) [Compound 17, 2-(1-(4-chlorobenzoyl)-5-methoxy-2-methyl-1H-indol-3-yl)ethyl 6-hydroxy-2,5,7,8-tetramethylchromane-2-carboxylate]	45%	IC50 [4]: 76 µM
> 150 µM	141.1 to 141.8 °C	Cc1c(Cl)cccc1Nc1ccccc1COC(=O)c1cc(C(C)(C)C)c(O)c(C(C)(C)C)c1 [Compound 6, 2-((3-chloro-2-methylphenyl)amino)benzyl 3,5-di-tert-butyl-4-hydroxybenzoate]	67%	–
68 µM	149.3 to 149.9 °C	COc1ccc2c(c1)c(CC(=O)OCc1cc(C(C)(C)C)c(O)c(C(C)(C)C)c1)c(C)n2C(=O)c1ccc(Cl)cc1 [Compound 13, 3,5-di-tert-butyl-4-hydroxybenzyl 2-(1-(4-chlorobenzoyl)-5-methoxy-2-methyl-1H-indol-3-yl)acetate]	39%	–
–	48.4 to 48.7 °C	Cc1c(Cl)cccc1Nc1ccccc1CO [f, (2-((3-chloro-2-methylphenyl)amino)phenyl)methanol]	43%	–
142 µM	149 to 149.7 °C	CC(C)(C)c1cc(COC(=O)Cc2ccccc2Nc2c(Cl)cccc2Cl)cc(C(C)(C)C)c1O [Compound 11, 3,5-di-tert-butyl-4-hydroxybenzyl 2-(2-((2,6-dichlorophenyl)amino)phenyl)acetate]	40%	–
122 µM	147.8 to 149.2 °C	CC(C)(C)c1cc(C(=O)OCCc2ccccc2Nc2c(Cl)cccc2Cl)cc(C(C)(C)C)c1O [Compound 12, 2-((2,6-dichlorophenyl)amino)phenethyl 3,5-di-tert-butyl-4-hydroxybenzoate]	54%	–
150 µM	119.9 to 120.5 °C	CC(C)(C)c1cc(C(=O)OCc2ccccc2Nc2cccc(C(F)(F)F)c2)cc(C(C)(C)C)c1O [Compound 8, 2-((3-(trifluoromethyl)phenyl)amino)benzyl 3,5-di-tert-butyl-4-hydroxybenzoate]	48%	improvement in anti-inflammatory activity [2]: 2–2.5 fold
9 µM	–	COc1ccc2cc(C(C)COC(=O)C3(C)CCc4c(C)c(O)c(C)c(C)c4O3)ccc2c1 (stereo not drawn) [Compound 15, 2-(6-methoxynaphthalen-2-yl)propyl 6-hydroxy-2,5,7,8-tetramethylchromane-2-carboxylate]	55%	IC50 [4]: 147 µM; reduction of total cholesterol (TC) levels in plasma [3]: 42%; reduction of triglyceride (TG) levels in plasma [3]: 65%
> 150 µM	69.2 to 70 °C	Cc1c(C)c2c(c(C)c1O)CCC(C)(C(=O)OCC(C)c1ccc(CC(C)C)cc1)O2 (stereo not drawn) [Compound 14, 2-(4-isobutylphenyl)propyl6-hydroxy-2,5,7,8-tetramethylchromane-2-carboxylate]	42%	IC50 [4]: 34 µM

More lines, now with the values behind:

Structure (SMILES)	IC50 [1]	melting point	inhibition in vivo at 300 µmol/kg [2]	also measured
OCc1ccccc1Nc1cccc(C(F)(F)F)c1 [h, (2-((3-(trifluoromethyl)phenyl)amino)phenyl)methanol, reference compound]	–	–	22%	–
O=C(O)c1ccccc1Nc1cccc(C(F)(F)F)c1 [g, Flufenamic acid]	–	–	–	% Edema Reduction ([5]; 0.15 mmol/kg i.p.): 19**^a [17] %
COc1ccc2c(c1)c(CC(=O)O)c(C)n2C(=O)c1ccc(Cl)cc1 [m, Indomethacin]	–	–	–	% Edema Reduction ([5]; 0.30 mmol/kg i.p.): 55*** [5] %
CC(C)Cc1ccc(C(C)COC(=O)c2cc(C(C)(C)C)c(O)c(C(C)(C)C)c2)cc1 (stereo not drawn) [Compound 2, 2-(4-isobutylphenyl)propyl 3,5-di-tert-butyl-4-hydroxybenzoate]	–	–	56%	–
CC(C)Cc1ccc(C(C)C(=O)OCc2cc(C(C)(C)C)c(O)c(C(C)(C)C)c2)cc1 (stereo not drawn) [Compound 1, 3,5-di-tert-butyl-4-hydroxybenzyl 2-(4-isobutylphenyl)propanoate]	22 µM	–	26%	–
CC(C)Cc1ccc(C(C)C(=O)O)cc1 (stereo not drawn) [a, Ibuprofen]	–	–	–	% Edema Reduction ([5]; 0.30 mmol/kg i.p.): 57*** [5] %
Cc1cccc(Nc2ccccc2CO)c1C [j, (2-((2,3-dimethylphenyl)amino)phenyl)methanol, reference compound]	–	–	42%	–
COc1ccc2cc(C(C)COC(=O)c3cc(C(C)(C)C)c(O)c(C(C)(C)C)c3)ccc2c1 (stereo not drawn) [Compound 4, 2-(6-methoxynaphthalen-2-yl)propyl 3,5-di-tert-butyl-4-hydroxybenzoate]	64 µM	154.1 to 155 °C	49%	–
Cc1c(Cl)cccc1Nc1ccccc1C(=O)OCc1cc(C(C)(C)C)c(O)c(C(C)(C)C)c1 [Compound 5, 3,5-di-tert-butyl-4-hydroxybenzyl 2-((3-chloro-2-methylphenyl)amino)benzoate]	> 200 µM	–	55%	–
CC(C)Cc1ccc(C(C)CO)cc1 (stereo not drawn) [b, Ibuprofenol, reference compound]	–	–	66%	–
O=C(O)Cc1ccccc1Nc1c(Cl)cccc1Cl [k, Diclofenac]	–	–	–	% Edema Reduction ([5]; 0.30 mmol/kg i.p.): 61*** [5] %

Reference: publication PMC8399014, “Design of Multifaceted Antioxidants: Shifting towards Anti-Inflammatory and Antihyperlipidemic Activity” (Molecules, 2021)
